Where a name gives a salt, the structure may show the parent alone.
Key:
[1] = tested on: SPF male rats, OFA strain; assay: Anti-inflammatory activity: paw swelling after subcutaneous plantar injection of carraghenine, oral administration; type: in vivo; conditions: for inhibition in vivo at 256 mg/kg: 256 mg/kg oral; for ED50: read-out: ED50 (50% effective dose), anti-inflammatory; for inhibition in vivo at 512 mg/kg: 512 mg/kg oral; for inhibition in vivo at 4 mg/kg: 4 mg/kg oral
Description: Anti-inflammatory activity
The products to be tested are administered orally to batches of 12 SPF male rats, OFA strain, weighing 120-130 g, 2 hours and 30 minutes (1/2 dose each time) before the subcutaneous plantar injection of 0.05 ml of a 1% strength solution of carraghenine. The volume of the back paw which received the phlogogenic agent is measured at regular intervals. The 50% effective dose is calculated at the moment of greatest swelling of the controls.
The results are given in Tables I to IV below, in which the percentage reduction in the inflammation is noted.

[2] = tested on: male mice (SPF1, OF1 strain); assay: Analgesic activity: inhibition of pain reactions (abdominal twistings) after intraperitoneal phenylbenzoquinone, oral administration; type: in vivo; conditions: for inhibition in vivo at 64 mg/kg: 64 mg/kg oral; for ED50: read-out: ED50 (50% effective dose), analgesic; for inhibition in vivo at 4 mg/kg: 4 mg/kg oral
Description: The products tested are administered orally to batches of 6 male mice (SPF1, OF1 strain) weighing 19-20 g.
1 hour later, 0.3 ml of a 0.02% strength solution of phenylbenzoquinone is injected intraperitoneally into each mouse and, from the 5th to the 10th minute after the latter treatment, the number of pain reactions (abdominal twistings) is counted.
Table V to VIII below give the percentage inhibition of these reactions.

[3] = Rattus norvegicus, po, 16 mg/kg oral, carraghenine, read-out: percentage reduction in the inflammation
[4] = Rattus norvegicus, po, 32 mg/kg oral, carraghenine, read-out: percentage reduction in the inflammation
[5] = Rattus norvegicus, po, 64 mg/kg oral, carraghenine, read-out: percentage reduction in the inflammation
[6] = Rattus norvegicus, po, 128 mg/kg oral, carraghenine, read-out: percentage reduction in the inflammation
[7] = Rattus norvegicus, po, carraghenine, read-out: percentage reduction in the inflammation
[8] = Rattus norvegicus, po, at the moment of greatest swelling of the controls
[9] = Mus musculus, po, 8 mg/kg oral, read-out: percentage inhibition of pain reactions
[10] = Mus musculus, po, 16 mg/kg oral, read-out: percentage inhibition of pain reactions
[11] = Mus musculus, po, 32 mg/kg oral, read-out: percentage inhibition of pain reactions
[12] = Mus musculus, po, read-out: percentage inhibition of pain reactions
[13] = Mus musculus, po, 128 mg/kg oral, read-out: percentage inhibition of pain reactions
[14] = Mus musculus, po, 256 mg/kg oral, read-out: percentage inhibition of pain reactions
[15] = Mus musculus, po, 512 mg/kg oral, read-out: percentage inhibition of pain reactions
[16] = 16 mg/kg oral, rat, carraghenine

SMILES	inhibition in vivo at 16 mg/kg [1, 3] [%]	inhibition in vivo at 32 mg/kg [1, 4] [%]	inhibition in vivo at 64 mg/kg [1, 5] [%]	inhibition in vivo at 128 mg/kg [1, 6] [%]	inhibition in vivo at 256 mg/kg [1, 7] [%]	ED50 [1, 8] [mg/kg]	inhibition in vivo at 16 mg/kg [2, 10] [%]	inhibition in vivo at 32 mg/kg [2, 11] [%]	inhibition in vivo at 64 mg/kg [2, 12] [%]	ED50 ([2]; Mus musculus, po) [mg/kg]	inhibition in vivo at 128 mg/kg [2, 13] [%]	inhibition in vivo at 256 mg/kg [2, 14] [%]	further results
CC(C(=O)O)c1ccc2c(c1)CC(C)(C)C2 (stereo not drawn) [Example 16, 2-Methyl-[2,2-dimethyl-indanyl-(5)]-acetic acid]	4	20	37	61	94	73	30	77	96	19	–	–	inhibition in vivo at 8 mg/kg [2, 9]: 13%
CCC1Cc2ccc(C(C)CO)cc2C1 (stereo not drawn) [Example 34, 2-Methyl-β-[2-ethyl-indanyl-(5)]-ethanol]	46	42	51	60	61	50	–	12	22	95	60	94	–
CC(CO)c1ccc2c(c1)CC(C(C)C)C2 (stereo not drawn) [Example 33, 2-Methyl-β-[2-isopropyl-indanyl-(5)]-ethanol]	13	34	52	58	63	85	68	90	–	9	–	–	inhibition in vivo at 8 mg/kg ([1]; Rattus norvegicus, po, 8 mg/kg oral, carraghenine, read-out: percentage reduction in the inflammation): 0%; inhibition in vivo at 2 mg/kg ([2]; Mus musculus, po, 2 mg/kg oral, read-out: percentage inhibition of pain reactions): 6%; inhibition in vivo at 4 mg/kg [2, 12]: 25%; inhibition in vivo at 8 mg/kg [2, 9]: 42%
CC(C(=O)O)c1ccc2c(c1)CC(C1CCCCC1)C2 (stereo not drawn) [Example 14, 2-Methyl-[2-cyclohexyl-indanyl-(5)]-acetic acid]	11	5	16	17	31	> 512	–	20	35	110	52	62	inhibition in vivo at 512 mg/kg [1, 7]: 34%; inhibition in vivo at 512 mg/kg [2, 15]: 93%
CC1Cc2ccc(C(C)C(=O)OCCN3CCOCC3)cc2C1 (stereo not drawn) [Example 22, Oxalate of the morpholino-ethyl ester of 2-methyl-[2-methyl-indanyl-(5)]-acetic acid]	17	7	12	11	34	480	13	19	73	45	86	98	inhibition in vivo at 512 mg/kg [1, 7]: 52%
CC(C)C1Cc2ccc(CC(=O)O)cc2C1 (stereo not drawn) [Example 4, [2-Isopropyl-indanyl-(5)]-acetic acid]	–	10	19	47	80	120	6	33	70	40	99	–	–
CC(C(=O)OCCN1CCOCC1)c1ccc2c(c1)CC(C)(C)C2 (stereo not drawn) [Example 24, Hydrochloride of the morpholino-ethyl ester of 2-methyl-[2,2-dimethyl-indanyl-(5)]-acetic acid]	7	21	36	50	57	142	24	32	53	35	97	–	inhibition in vivo at 512 mg/kg [1, 7]: 73%; inhibition in vivo at 8 mg/kg [2, 9]: 0%
CCN(CC)CCOC(=O)C(C)c1ccc2c(c1)CC(C(C)C)C2 (stereo not drawn) [Example 28, Oxalate of the diethylaminoethyl ester of 2-methyl-[2-isopropylindanyl-(5)]-acetic acid]	31	–	66	72	79	24	40	66	86	20	–	–	inhibition in vivo at 4 mg/kg [1, 7]: 37%; inhibition in vivo at 4 mg/kg [2, 12]: 21%; inhibition in vivo at 8 mg/kg [2, 9]: 20%
CC(C(=O)O)c1ccc2c(c1)CC(C(C)C)C2 (stereo not drawn) [Example 19, Dimethylaminoethanol salt of 2-methyl-[2-isopropyl-indanyl-(5)]-acetic acid]	–	–	–	–	82	–	–	–	96	–	–	–	percentage reduction in the inflammation ([1]; 8 mg/kg oral, rat, carraghenine): 20%; percentage reduction in the inflammation [1, 16]: 44%; percentage reduction in the inflammation ([1]; 32 mg/kg oral, rat, carraghenine): 48%; percentage reduction in the inflammation ([1]; 64 mg/kg oral, rat, carraghenine): 63%; percentage reduction in the inflammation ([1]; 128 mg/kg oral, rat, carraghenine): 67%; inhibition in vivo at 4 mg/kg [1, 7]: 25%; ED50 (50% effective dose), anti-inflammatory ([1]; oral, rat, at the moment of greatest swelling of the controls): 30 mg/kg; percentage inhibition of pain reactions ([2]; 8 mg/kg oral, mouse): 31%; percentage inhibition of pain reactions ([2]; 16 mg/kg oral, mouse): 54%; percentage inhibition of pain reactions ([2]; 32 mg/kg oral, mouse): 82%; inhibition in vivo at 4 mg/kg [2, 12]: 5%; ED50 (50% effective dose), analgesic ([2]; oral, mouse): 14 mg/kg
CC(C)C1Cc2ccc(CC(=O)OCCN3CCOCC3)cc2C1 (stereo not drawn) [Example 8, Hydrochloride of the morpholino-ethyl ester of [2-isopropyl-indanyl-(5)]-acetic acid]	–	17	23	52	62	150	–	10	67	70	73	90	–
CC(C(=O)OCCN1CCOCC1)c1ccc2c(c1)CC(C(C)C)C2 (stereo not drawn) [Example 9, Morpholino-ethyl ester of 2-methyl-[2-isopropyl-indanyl-(5)]-acetic acid]	47	68	80	–	–	17	–	28	26	78	79	97	–
CC1Cc2ccc(CC(=O)O)cc2C1 (stereo not drawn) [Example 12, [2-Methyl-indanyl-(5)]-acetic acid]	15	23	49	71	80	70	–	9	20	175	46	67	inhibition in vivo at 512 mg/kg [2, 15]: 75%
CCC(C(=O)O)c1ccc2c(c1)CC(C(C)C)C2 (stereo not drawn) [Example 20, Dimethylaminoethanol salt of 2-ethyl-[2-isopropyl-indanyl-(5)]-acetic acid]	–	24	25	38	37	> 256	–	26	–	175	–	–	percentage reduction in the inflammation [1, 16]: 16%; percentage inhibition of pain reactions ([2]; 128 mg/kg oral, mouse): 27%; percentage inhibition of pain reactions ([2]; 256 mg/kg oral, mouse): 74%; percentage inhibition of pain reactions ([2]; 512 mg/kg oral, mouse): 100%
CC1CC(C)c2cc(CC(=O)O)c(Cl)cc21 (stereo not drawn) [Example 3, [6-Chloro-1,3-dimethyl-indanyl-(5)]-acetic acid]	–	–	24	36	56	200	33	51	66	33	66	94	–

Reference: patent US4182896A, “Indane derivatives” (Societe Hexachimie, priority 1974, dated 1980)
